From patent US11584755B2 (IDEAYA BIOSCIENCES, INC., priority 2017, dated 2023)

These compounds were tested against hFEN1 (Homo sapiens (Human), UniProt P39748) (assay: Enzymatic IC50 assay, FAM-labeled DNA oligomer substrate, fluorescence intensity (FEN1)). Conditions: hFEN1 70 pM, substrate 100 nM, reaction time 20 minutes, 23° C.
Type: biochemical
Protocol: FEN1, EXO1 or XPG enzyme was incubated with compound or vehicle (DMSO) and the FAM-labeled DNA oligomer substrate in a microtiter plate. The stop buffer contains EDTA to stop the enzymatic reaction. The plate is read for fluorescence intensity. The high control (DMSO) with high fluorescence intensity represents no inhibition of enzymatic reaction while the low control (10 μM) with low fluorescence intensity represents full inhibition of enzymatic reaction.
• FEN1 • hFEN1: 70 pM • Substrate: 100 nM • Reaction time: 20 minutes • EXO1 • hEXO1: 6 nM, Isoforml • Substrate: 30 nM • Reaction time: 60 minutes • XPG • hXPG: 100 nM • Substrate: 100 nM • Reaction time: 120 minutes
Annealing Buffer: 50 mM Tris-HCl, 50 mM NaCl, 1 mM DTT Assay buffer: 50 mM Tris-HCl pH 8.0, 10 mM MgCl2, 0.01% BSA, 1 mM DTT Stop buffer: 50 mM EDTA in assay buffer Temperature: 23° C. Total volume: 40 μl Controls: • 0% inhibition control: DMSO • 100% inhibition control: 10 μM (final) 5-chloro-3-hydroxy-1,3-dihydroquinazoline-2,4-dione Enzyme Reaction and Detection: • 1. Prepare 25 μM intermediate stock of the substrate by diluting SEQ ID NO:1, SEQ ID NO:2, and SEQ ID NO:3 in annealing buffer, in a PCR tube. • 2. Place the PCR tube on a heat block, heat at 95° C. for 3 minutes, then drop in 0.2° C. increments over 2 minutes, stopping at 25° C. • 3. Remove the tube and let the tube cool at room temperature. • 4. Transfer 10 μL of 3× final concentration test compounds or DMSO to the appropriate wells of a microtiter plate. • 5. Transfer 10 μL of 3× final concentration enzyme in assay buffer or assay buffer alone to the appropriate wells. • 6. Incubate the plate at room temperature for 15 minutes. • 7. Transfer 10 μL of 3× substrate in assay buffer to all the test wells. • 8. Incubate the plate at room temperature for prescribed reaction time. • 9. Centrifuge the plate at 1000 rpm for 1 minute. • 10. Transfer 10 μL of stop buffer to all the test wells. • 11. Centrifuge the plate at 1000 rpm for 1 minute. • 12. Read the plate on a plate reader.

Chain of hFEN1 (P39748 whole entry): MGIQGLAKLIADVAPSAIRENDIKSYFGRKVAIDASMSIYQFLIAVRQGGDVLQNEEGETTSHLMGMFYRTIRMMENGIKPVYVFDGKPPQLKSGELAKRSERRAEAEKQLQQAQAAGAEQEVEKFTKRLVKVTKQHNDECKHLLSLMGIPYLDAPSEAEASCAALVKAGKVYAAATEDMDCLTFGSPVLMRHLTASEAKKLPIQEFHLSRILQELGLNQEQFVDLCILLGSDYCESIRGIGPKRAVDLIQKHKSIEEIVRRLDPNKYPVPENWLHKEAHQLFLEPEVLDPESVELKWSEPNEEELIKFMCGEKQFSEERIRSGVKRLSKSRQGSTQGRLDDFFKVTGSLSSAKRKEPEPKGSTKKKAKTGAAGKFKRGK

Row | Structure (SMILES) | IC50 [µM]
1 | CC(C)(C)OC(=O)Nc1ccc(Cn2c(=O)c(O)c(C(=O)O)c3sccc32)cc1 [Example 15, 4-(4-((tert-butoxycarbonyl)amino)benzyl)-6-hydroxy-5-oxo-4,5-dihydrothieno[3,2-b]pyridine-7-carboxylic acid] | < 0.2
2 | CCOC(=O)c1c(O)c(=O)n(Cc2ccc(OC)cc2)c2ccsc12 [Example 33, ethyl 6-hydroxy-4-(4-methoxybenzyl)-5-oxo-4,5-dihydrothieno[3,2-b]pyridine-7-carboxylate] | 2.25 to 10
3 | O=C(O)c1c(O)c(=O)n(Cc2ccccc2Br)c2ccsc12 [Example 35, 4-(2-bromobenzyl)-6-hydroxy-5-oxo-4,5-dihydrothieno[3,2-b]pyridine-7-carboxylic acid] | 2.25 to 10
4 | O=C(O)c1c(O)c(=O)n(Cc2ccccn2)c2ccsc12 [Example 38, 6-hydroxy-5-oxo-4-(pyridin-2-ylmethyl)-4,5-dihydrothieno[3,2-b]pyridine-7-carboxylic acid] | 2.25 to 10
5 | CC(=O)Nc1ccccc1Cn1c(=O)c(O)c(C(=O)O)c2sccc21 [Example 39, 4-(2-acetamidobenzyl)-6-hydroxy-5-oxo-4,5-dihydrothieno[3,2-b]pyridine-7-carboxylic acid] | 2.25 to 10
6 | O=C(O)c1c(O)c(=O)n(CC2CCCCC2)c2ccsc12 [Example 44, 4-(cyclohexylmethyl)-6-hydroxy-5-oxo-4,5-dihydrothieno[3,2-b]pyridine-7-carboxylic acid] | 2.25 to 10
7 | O=C(O)c1c(O)c(=O)n(Cc2ccncc2)c2ccsc12 [Example 47, 6-hydroxy-5-oxo-4-(pyridin-4-ylmethyl)-4,5-dihydrothieno[3,2-b]pyridine-7-carboxylic acid] | 2.25 to 10
8 | Cn1nc(Cn2c(=O)c(O)c(C(=O)O)c3sccc32)c2ccccc21 [Example 51] | 2.25 to 10
9 | N#Cc1ccccc1Cn1c(=O)c(O)c(C(=O)O)c2sccc21 [Example 54, 4-(2-cyanobenzyl)-6-hydroxy-5-oxo-4,5-dihydrothieno[3,2-b]pyridine-7-carboxylic acid] | 2.25 to 10
10 | O=C(O)c1c(O)c(=O)n(Cc2ccc(OC(F)(F)F)cc2)c2ccsc12 [Example 56, 6-hydroxy-5-oxo-4-(4-(trifluoromethoxy)benzyl)-4,5-dihydrothieno[3,2-b]pyridine-7-carboxylic acid] | 2.25 to 10
11 | N#Cc1cccc(Cn2c(=O)c(O)c(C(=O)O)c3sccc32)c1 [Example 58, 4-(3-cyanobenzyl)-6-hydroxy-5-oxo-4,5-dihydrothieno[3,2-b]pyridine-7-carboxylic acid] | 2.25 to 10
12 | CC(C)(C)OC(=O)N1CCCC(Cn2c(=O)c(O)c(C(=O)O)c3sccc32)C1 (centres unmarked) [Example 61, 4-{[1-(tert-butoxycarbonyl)piperidin-3-yl]methyl}-6-hydroxy-5-oxo-4,5-dihydrothieno[3,2-b]pyridine-7-carboxylic acid] | 2.25 to 10

Continued, values first:

Row | IC50 [µM] | Structure (SMILES)
13 | 0.75 to 2.25 | O=C(O)c1c(O)c(=O)n(CC2CCCO2)c2ccsc12 (centres unmarked) [Example 8, 6-hydroxy-5-oxo-4-(tetrahydrofuran-2-ylmethyl)thieno[3,2-b]pyridine-7-carboxylic acid]
14 | 2.25 to 10 | O=C(O)c1c(O)c(=O)n(CC2CCNCC2)c2ccsc12 [Example 10, 6-hydroxy-5-oxo-4-(4-piperidylmethyl)thieno[3,2-b]pyridine-7-carboxylic acid]
15 | 0.25 to 0.75 | O=C(O)c1c(O)c(=O)n(Cc2cccc(F)c2)c2ccsc12 [Example 11, 4-(3-fluorobenzyl)-6-hydroxy-5-oxo-4,5-dihydrothieno[3,2-b]pyridine-7-carboxylic acid]
16 | < 0.2 | O=C(O)c1c(O)c(=O)n(CC2COc3ccccc3O2)c2ccsc12 (centres unmarked) [Example 13, 4-(2,3-dihydro-1,4-benzodioxin-3-ylmethyl)-6-hydroxy-5-oxo-thieno[3,2-b]pyridine-7-carboxylic acid]
17 | 0.75 to 2.25 | CC(=O)Nc1ccc(Cn2c(=O)c(O)c(C(=O)O)c3sccc32)cc1Cl [Example 14, 4-(4-acetamido-3-chlorobenzyl)-6-hydroxy-5-oxo-4,5-dihydrothieno[3,2-b]pyridine-7-carboxylic acid]
18 | 0.75 to 2.25 | O=C(O)c1c(O)c(=O)n(Cc2ccc3[nH]c(=O)ccc3c2)c2ccsc12 [Example 17, 6-hydroxy-5-oxo-4-[(2-oxo-1H-quinolin-6-yl)methyl]thieno[3,2-b]pyridine-7-carboxylic acid]
19 | 0.25 to 0.75 | O=C(O)c1c(O)c(=O)n(Cc2ncn(-c3ccccc3)n2)c2ccsc12 [Example 20, 6-hydroxy-5-oxo-4-[(1-phenyl-1H-1,2,4-triazol-3-yl)methyl]-4,5-dihydrothieno[3,2-b]pyridine-7-carboxylic acid]
20 | < 0.2 | O=C(O)c1c(O)c(=O)n(Cc2cnn(-c3ccc([N+](=O)[O-])cc3)c2)c2ccsc12 [Example 21, 6-hydroxy-4-{[1-(4-nitrophenyl)-1H-pyrazol-4-yl]methyl}-5-oxo-4,5-dihydrothieno[3,2-b]pyridine-7-carboxylic acid]
21 | < 0.2 | COc1ccc(-n2cc(Cn3c(=O)c(O)c(C(=O)O)c4sccc43)nn2)cc1 [Example 25, 6-hydroxy-4-{[1-(4-methoxyphenyl)triazol-4-yl]methyl}-5-oxo-thieno[3,2-b]pyridine-7-carboxylic acid]
22 | < 0.2 | COc1cc(Cn2cc(Cn3c(=O)c(O)c(C(=O)O)c4sccc43)cn2)ccc1C#N [Example 26, 4-{[1-(4-cyano-3-methoxybenzyl)-1H-pyrazol-4-yl]methyl}-6-hydroxy-5-oxo-4,5-dihydrothieno[3,2-b]pyridine-7-carboxylic acid]
23 | < 0.2 | O=C(O)c1c(O)c(=O)n(Cc2cnn(CC(=O)N3CC[C@@H](O)C3)c2)c2ccsc12 [Example 27, 6-hydroxy-4-[(1-{2-[(3R)-3-hydroxypyrrolidin-1-yl]-2-oxo-ethyl}pyrazol-4-yl)methyl]-5-oxo-thieno[3,2-b]pyridine-7-carboxylic acid]
24 | 0.25 to 0.75 | O=C(O)c1c(O)c(=O)n(Cc2cccc(C(F)(F)F)c2)c2ccsc12 [Example 43, 6-hydroxy-5-oxo-4-(3-(trifluoromethyl)benzyl)-4,5-dihydrothieno[3,2-b]pyridine-7-carboxylic acid]
25 | 0.25 to 0.75 | COc1cccc(Cn2c(=O)c(O)c(C(=O)O)c3sccc32)c1 [Example 52, 6-hydroxy-4-(3-methoxybenzyl)-5-oxo-4,5-dihydrothieno[3,2-b]pyridine-7-carboxylic acid]
26 | 0.75 to 2.25 | O=C(O)c1c(O)c(=O)n(Cc2cccc(OC(F)(F)F)c2)c2ccsc12 [Example 55, 6-hydroxy-5-oxo-4-(3-(trifluoromethoxy)benzyl)-4,5-dihydrothieno[3,2-b]pyridine-7-carboxylic acid]
27 | < 0.2 | O=C(O)c1c(O)c(=O)n(Cc2ccc(OC(F)F)cc2)c2ccsc12 [Example 57, 4-(4-(difluoromethoxy)benzyl)-6-hydroxy-5-oxo-4,5-dihydrothieno[3,2-b]pyridine-7-carboxylic acid]
28 | 0.25 to 0.75 | O=C(O)c1c(O)c(=O)n(Cc2ccc(Cl)c(Cl)c2)c2ccsc12 [Example 59, 4-(3,4-dichlorobenzyl)-6-hydroxy-5-oxo-4,5-dihydrothieno[3,2-b]pyridine-7-carboxylic acid]
29 | 0.75 to 2.25 | O=C(O)c1c(O)c(=O)n(Cc2cccnc2)c2ccsc12 [Example 60, 6-hydroxy-5-oxo-4-(pyridin-3-ylmethyl)-4,5-dihydrothieno[3,2-b]pyridine-7-carboxylic acid]
